Values quoted from earlier work in patent US10383918B2, “Compositions in the form of an injectable aqueous solution comprising human glucagon and a statistical co-polyamino acid” (ADOCIA, priority 2016, dated 2019).

Conditions: lyophilizate reconstituted at acidic pH (pH<3)

- Time to appearance of human glucagon fibrils after the reconstitution: ≤ 24 h
Substance: H-His-Ser-Gln-Gly-Thr-Phe-Thr-Ser-Asp-Tyr-Ser-Lys-Tyr-Leu-Asp-Ser-Arg-Arg-Ala-Gn-Asp-Phe-Val-Gn-Trp-Leu-Met-Asn-Thr-OH [human glucagon]
